Measurements published in US12180187B2, “1-phenyl-5-azinylpyrazolyl-3-oxyalkyl acids and their use for controlling unwanted plant growth” (BAYER AKTIENGESELLSCHAFT, priority 2019, dated 2024).
Values joined by “and” are separate entries in the source; they are usually repeats but may differ in a detail not shown here. Identical values can stand only once.

Key:
PHBPU = assay: Pre-emergence action at 320 g/ha against PHBPU; assay type: in vivo; conditions: visual scoring after about 3 weeks vs untreated controls
In short: (§1)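 Application: aqueous WP or EC with 0.5% additive on soil covering seeds, 600 l/ha. Read-out: visual percent damage after ~3 weeks in greenhouse, untreated pots as reference.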

HORMU = assay: Pre-emergence action at 320 g/ha against HORMU; assay type: in vivo, Hordeum murinum; conditions: greenhouse, scored visually after about 3 weeks vs untreated controls, 100% = plants have died, 0% = like control plants
Source text: b) Seeds of monocotyledonous and dicotyledonous weed plants and crop plants are placed in plastic or organic planting pots and covered with soil. The compounds of the invention, formulated in the form of wettable powders (WP) or as emulsion concentrates (EC), are then applied onto the surface of the covering soil as aqueous suspension or emulsion with addition of 0.5% additive at a water application rate of 600 l/ha (converted). After the treatment, the pots are placed in a greenhouse and kept under good growth conditions for the trial plants. After about 3 weeks, the effect of the preparations is scored visually in comparison with untreated controls as percentages. For example, 100% activity=the plants have died, 0% activity=like control plants. Tables 13 to 26 below show the effects of selected compounds of the general formula (I) on various harmful plants and at an application rate corresponding to 320 g/ha, which were obtained by the experimental procedure mentioned above.

ABUTH = assay: Pre-emergence action at 320 g/ha against ABUTH; assay type: in vivo, Abutilon theophrasti; conditions: greenhouse, scored visually after about 3 weeks vs untreated controls, 100% = plants have died, 0% = like control plants
In short: as §1

SMILES	Pre-emergence action against PHBPU in % (PHBPU)	Pre-emergence action at 320 g/ha against HORMU in % (HORMU)	Pre-emergence action at 320 g/ha against ABUTH in % (ABUTH)
COC(=O)CNC(=O)COc1nn(-c2ccccc2F)c(-c2ccc(F)nc2)c1Br [Example X-002]	80%		
COC(=O)COc1nn(-c2ccc(F)cc2)c(-c2ccc(F)nc2)c1Br [VII-002]		80%	
COC(=O)COc1nn(-c2ccccc2F)c(-c2cncnc2)c1Br [VI-004, Methyl {[4-bromo-1-(2-fluorophenyl)-5-(pyrimidin-5-yl)-1H-pyrazol-3-yl]oxy}acetate]		100%	80%
COC(=O)[C@@H](C)Oc1nn(-c2ccccc2F)c(-c2ccnc(F)c2)c1Br [VIII-006]	90%		
O=C(O)COc1nn(-c2ccccc2F)c(-c2cncc(F)c2)c1Br [VII-025]	90%		
CCC(Oc1nn(-c2ccccc2F)c(-c2ccc(F)nc2)c1Br)C(=O)OC (stereo not drawn) [VII-029]		90%	
O=C(O)COc1nn(-c2ccccc2F)c(-c2ccc(F)nc2)c1Br [VII-003, {[4-Bromo-1-(2-fluorophenyl)-5-(6-fluoropyridin-3-yl)-1H-pyrazol-3-yl]oxy}acetic acid]	90%	90%	
COC(=O)[C@@H](C)Oc1nn(-c2ccccc2F)c(-c2cncnc2)c1Br [VI-011, Methyl (2R)-2-{[4-bromo-1-(2-fluorophenyl)-5-(pyrimidin-5-yl)-1H-pyrazol-3-yl]oxy}propanoate]	90%		80%
CCOC(=O)COc1nn(-c2ccccc2F)c(-c2cncc(F)c2)c1Br [VII-015]	90%		80%
COC(=O)[C@@H](C)Oc1nn(-c2ccccc2)c(-c2cccnc2)c1Br [VII-008]	80%		80%
COC(=O)[C@@H](C)Oc1nn(-c2ccccc2)c(-c2cncnc2)c1Br [VI-013]			80%
COC(=O)COc1nn(-c2ccc(F)cc2)c(-c2cccnc2)c1Br [VII-028]	100%		90%
CCOC(=O)COc1nn(-c2ccccc2F)c(-c2ccc(F)nc2)c1Br [VII-012, Ethyl {[4-bromo-1-(2-fluorophenyl)-5-(6-fluoropyridin-3-yl)-1H-pyrazol-3-yl]oxy}acetate]	90% and 80%	80%	
COC(=O)[C@@H](C)Oc1nn(-c2cc(F)ccc2F)c(-c2cncc(F)c2)c1Br [VII-132]			90%
CCOC(=O)COc1nn(-c2ccccc2F)c(-c2ccc(F)nc2)c1C(F)(F)F [VII-010]	90%		
COC(=O)C(C)Oc1nn(-c2ccccc2)c(-c2cccnc2)c1Cl (stereo not drawn) [VII-032]	100%	80%	
COC(=O)COc1nn(-c2ccccc2F)c(-c2ccc(F)nc2)c1C(F)(F)F [VII-031]	80%		
CCOC(=O)COc1nn(-c2ccccc2F)c(-c2ccnc(F)c2)c1Br [VIII-003, Ethyl {[4-bromo-1-(2-fluorophenyl)-5-(2-fluoropyridin-4-yl)-1H-pyrazol-3-yl]oxy}acetate]		90%	
CCOC(=O)COc1nn(-c2ccc(F)cc2F)c(-c2ccc(F)nc2)c1Cl [VII-016]	90%	90%	
COC(=O)COc1nn(-c2ccccc2F)c(-c2cncc(F)c2)c1Br [VII-035]	90%		90%
CN(C)S(=O)(=O)NC(=O)COc1nn(-c2ccccc2F)c(-c2ccc(F)nc2)c1Br [Example X-005]	90%		
COC(=O)COc1nn(-c2cc(F)ccc2F)c(-c2ccc(F)nc2)c1Br [VII-089]	80%		
CCOC(=O)C(C)Oc1nn(-c2ccccc2F)c(-c2ccc(F)nc2)c1Br (stereo not drawn) [VII-019]	90%	100%	
O=C(O)COc1nn(-c2ccccc2F)c(-c2cncnc2)c1Br [VI-007, {[4-Bromo-1-(2-fluorophenyl)-5-(pyrimidin-5-yl)-1H-pyrazol-3-yl]oxy}acetic Acid]	90%	100%	
COC(=O)C(C)Oc1nn(-c2ccccc2)c(-c2ccc(F)nc2)c1Cl (stereo not drawn) [VII-023, Methyl 2-{[4-chloro-5-(6-fluoropyridin-3-yl)-1-phenyl-1H-pyrazol-3-yl]oxy}propanoate]		100%	
C[C@@H](Oc1nn(-c2ccccc2F)c(-c2cncnc2)c1Br)C(=O)O [VI-012]	90%		80%
